In patent publication US20190030053A1, “COMPOSITION FOR INCREASING EXPRESSION OF PGC-1alpha” (BENEBIOSIS CO., LTD., priority 2016, published 2019):

Columns and labels:
PGC-1α and related genes = test: Gene expression in brain and hippocampus of epilepsy/convulsion brain disease models; type: in vivo, rat; settings: Noda epileptic rats, oral 0.1 mg/kg/day, 10 weeks
Text: In order to investigate the gene expression changes by the treatment with SL (3′-SL & 6′-SL) compositions in epilepsy/convulsion brain disease models, 4-week-old normal SD rats and epilepsy/convulsion brain disease models (Noda epileptic rat, NER) were purchased from Central Lab Animal (Korea). Water was freely accessible, and a commercially available pellet feed (Dooyeul Biotech, Korea) was given for two weeks. At 6 weeks of age, the SD rats were divided into four groups (composed of 8 animals per group): Eight 6-week-old male SD rats (normal rats; initial body weight, average 176.3±13.3 g) treated with a normal diet were used for a control group. […]
Sialyllactose or DW was orally administered daily. […] The dietary intake and body weight change were measured every 5 days. […]
The gene expression changes by the treatment with SL (3′-SL & 6′-SL) compositions were quantitatively compared in two main organs (brain and hippocampus) associated with bran diseases. RNA was extracted by TRIzol agent (Invitrogen). cDNA was synthesized by using RNA, which has been extracted as above and quantified, and a reverse transcription system (Promega, USA). The expression patterns of PGC-1α and related genes were measured by using pre-designed primers and probes (Applied Biosystems; PGC-1α, Mm00447181_m1, […]) for the synthesized cDNA and analysis targets (Fndc5, PGC-1α, Erra, UCP1, BDNF, SOD2, and GPX1). […]

[1] = test system: mouse aortic smooth muscle cells (MASMs); test: Mitochondrial superoxide production (MitoSOX Red) in MASMs of aging stimulation model mice; type: cell-based; settings: MASMs from aging stimulation model mice; SL added to culture liquid
Description: For the measurement of mitochondrial superoxide production, mitochondrial ROS was measured using MitoSOX Red (mitochondrial superoxide fluorescent marker). MASMs were extracted, and incubated with MitoSOX (4 μM) in the dark room at 37° C. for 20 minutes. The MitoSOX fluorescence was quantified by the cell fluorescence intensity read using a fluorescent plate reader (480 nm excitation/580 nm emission) (FIG. 17b).
In FIGS. 17a and 17b, MASMs were extracted from the aging stimulation model mouse control group, and the SL (3′-SL & 6′-SL) compositions were added to the culture liquid to conduct comparison.
FIGS. 17a and 17b show the measurement results of intercellular H2O2 (ROS values) (FIG. 17a) and the measurement results of mitochondrial superoxide production (FIG. 17b).

telomerase = test: Telomerase activity (TRAP) in vitro, MASMs of aging stimulation models; type: cell-based, mouse; settings: MASMs of aging stimulation model control group, cultured 1 day with SL
Description: In FIGS. 18a and 18b, the telomerase activity was measured using TRAP protocol (Wright et al., 1995). In summary, cell pellets were lysed in CHAPS lysis solvent (containing ribnuclease inhibitor), followed by incubation at 4° C. for 30 minutes. Cell extracts ([…]) were TRAPeze reaction mix (telomerase substrate (TS) primer, fluorescent-labeled RP (reverse) primer, control standard template, and sulforhodamine-labeled standard K2 primer). The TS primer was elongated at 30° C. for 30 minutes, and then PCR was performed. The fluorescence of the thus obtained TRAP product was measured using a fluorescent plate reader to quantify telomerase activity. Relative telomerase activity was normalized by the ratio of native […] to sulforhodamine (internal control standard), expressed as a percentage. Fluorescein (M0250) was purchased from Marker Gene Technologies, Inc. H2-dichlorofluorescin diacetate (DCFDA) was purchased from Molecular Probes. MitoSOX™ Red, MitoTracker Green FM, and MitoTracker® Orange CMTMRos (MTO) were purchased from Invitrogen. 10,000× SYBR® Gold dye was purchased from Molecular Probes, Inc. Nuclear/Cytosol fractionation kit (K266-100) was purchased from BioVision. TRAPeze® XL telomerase detection kit (S7707) was purchased from MILLIPORE. Telomere PNA FISH Kit/Cy3 (K5326) was purchased from Dako. […]

Row | Structure (SMILES) | expression levels of PGC-1α and related genes vs SL non-administration (epilepsy/convulsion brain disease model) group (PGC-1α and related genes) | mitochondrial superoxide production [1] | telomerase activity in MASMs (in vitro) (telomerase)
1 | CC(=O)N[C@H]1[C@H]([C@H](O)[C@H](O)CO)O[C@@](O[C@H]2[C@@H](O)[C@@H](CO)O[C@@H](O[C@H]3[C@H](O)[C@@H](O)C(O)O[C@@H]3CO)[C@@H]2O)(C(=O)O)C[C@@H]1O (stereo partly drawn) [3′-SL, α-NeuNAc-(2→3)-β-D-Gal-(1→4)-D-Glc] | relatively low compared with 6′-SL | inhibited the mitochondrial superoxide production | increased telomerase activity
2 | CC(=O)N[C@H]1[C@H]([C@H](O)[C@H](O)CO)O[C@@](OC[C@H]2O[C@@H](O[C@H]3[C@H](O)[C@@H](O)[C@H](O)O[C@@H]3CO)[C@H](O)[C@@H](O)[C@H]2O)(C(=O)O)C[C@@H]1O [6′-SL, α-NeuNAc-(2→6)-β-D-Gal-(1→4)-D-Glc] | significant increases | inhibited the mitochondrial superoxide production | increased telomerase activity
